Like-named read-outs stand apart in the source and are kept apart here.
Experiment: Solubilization of sparingly soluble compounds using quaternary ammonium cationic surfactants (dissolved concentration by HPLC)
Format: physicochemical
Description: Aqueous solubility of dexamethsone, a corticosteroid, and natamycin, an antifungal agent, was increased by using quaternary ammonium cationic surfactants cetyltrimethylammonium bromide (CTAB), ditetradecyldimethylammonium bromide (TMAB), and dioctadecyldimethylammonium chloride (OMAC). Stock solutions of surfactants were prepared by adding water to the surfactant and mixing under low shear at room temperature. The stock solution of CTAB and TMAB was prepared at 10 mg/mL and 20 mg/mL in WFI (water for injection) whereas the stock solution of OMAC was only prepared at 10 mg/mL due to gel formation at 20 mg/mL. Surfactant solutions with different concentrations were then prepared by diluting the corresponding stock solution with WFI.
Dexamethasone (or natamycin) was added to each surfactant solution in such quantity to precipitate. The mixture was sonicated for one hour in a sonication water tank and then stirred overnight.
Dissolved dexamethasone (or natamycin) concentration was analyzed on HPLC following two different procedures: (1) An aliquot of the mixture was centrifuged at 10 k RPM (9.3 k×g relative gravitational force) for 30 min. Clear supernatant was then analyzed on HPLC; (2) An aliquot of the mixture was filtered through a syringe filter (Acrodisc®, Supor membrane, 0.2 micrometers), and then analyzed on HPLC. […]

Aqueous solubility | SMILES | Aqueous solubility (in aqueous solutions of quaternary ammonium cationic surfactants CTAB, TMAB and OMAC in WFI, sonicated one hour, stirred overnight, HPLC after centrifugation or 0.2 micrometer filtration)
– | C[C@@H]1C[C@H]2[C@@H]3CCC4=CC(=O)C=C[C@]4(C)[C@@]3(F)[C@@H](O)C[C@]2(C)[C@@]1(O)C(=O)CO [dexamethsone, dexamethasone] | increased
increased | C[C@@H]1C/C=C/C=C/C=C/C=C/[C@H](O[C@@H]2O[C@H](C)[C@@H](O)[C@H](N)[C@@H]2O)C[C@@H]2O[C@](O)(C[C@@H](O)C[C@H]3O[C@@H]3/C=C/C(=O)O1)C[C@H](O)[C@H]2C(=O)O [natamycin] | –

— patent publication US20120225834A1, “OCULAR IONTOPHORESIS OF CHARGED MICELLES CONTAINING BIOACTIVE AGENTS” (EYEGATE PHARMACEUTICALS, INC., priority 2009, published 2012)
